# Assay results as given in the NIST ThermoML archive (doi:10.1016/j.jct.2012.11.016).
# Numbers after ± are expanded uncertainties.
# Legend:
# [1] = 101.33 kPa, Liquid; for viscosity: Capillary tube (Ostwald / Ubbelohde) method; for mass density: Vibrating tube method
# [2] = refractive index (Na D-line) (dimensionless); details: 101.33 kPa, Liquid, Standard Abbe refractometry
smiles,measurement,setting,value
"OCCO [1,2-ethanediol]",viscosity,[1]; 298.15 K,16.87 ± 1.7 mPa·s
same,viscosity,[1]; 303.15 K,13.59 ± 1.4 mPa·s
same,mass density,[1]; 303.15 K,1106 ± 1.1 kg/m3
same,viscosity,[1]; 308.15 K,11.34 ± 1.1 mPa·s
"OCCCCO [1,4-butanediol]",viscosity,[1]; 298.15 K,72.33 ± 7.3 mPa·s
same,mass density,[1]; 298.15 K,1013.9 ± 0.9 kg/m3
same,viscosity,[1]; 303.15 K,56.43 ± 5.7 mPa·s
same,mass density,[1]; 303.15 K,1010.6 ± 0.9 kg/m3
same,viscosity,[1]; 308.15 K,44.11 ± 4.5 mPa·s
same,mass density,[1]; 308.15 K,1007.5 ± 0.9 kg/m3
"OCCCO [propan-1,3-diol]",viscosity,[1]; 298.15 K,41.36 ± 4.2 mPa·s
same,mass density,[1]; 298.15 K,1049.6 ± 0.9 kg/m3
same,viscosity,[1]; 303.15 K,32.78 ± 3.3 mPa·s
same,mass density,[1]; 303.15 K,1046.2 ± 0.9 kg/m3
same,viscosity,[1]; 308.15 K,27 ± 2.7 mPa·s
same,mass density,[1]; 308.15 K,1043.1 ± 0.9 kg/m3
O [water],viscosity,[1]; 298.15 K,0.806 ± 0.081 mPa·s
same,viscosity,[1]; 303.15 K,0.728 ± 0.073 mPa·s
same,mass density,[1]; 303.15 K,995.4 ± 0.3 kg/m3
same,viscosity,[1]; 308.15 K,0.661 ± 0.066 mPa·s
same,mass density,[1]; 308.15 K,993.7 ± 0.3 kg/m3
same,refractive index,[2]; 298.15 K,1.3326 ± 0.0005
same,refractive index,[2]; 303.15 K,1.3321 ± 0.0005
same,refractive index,[2]; 308.15 K,1.3315 ± 0.0005
